Earlier results as cited in PubChem BioAssay AID1259409 (Chemical Carcinogenesis Research Information System (CCRIS), 2018).

Tested on: rodent chemically induced tumor inhibition, incidence and multiplicity
Test: CCRIS tumor inhibitor studies
Description: The CCRIS database contains chemical records with carcinogenicity, mutagenicity, tumor promotion, and tumor inhibition test results. It was developed by the National Cancer Institute (NCI). Data are derived from studies cited in primary journals, current awareness tools, NCI reports, and other sources. Test results have been reviewed by experts in carcinogenesis and mutagenesis.
CCRIS provides historical information from the years 1985 - 2011. It is no longer updated.
This is an archive assay for CCRIS tumor inhibitor studies.

## O=C(OC[C@@H]1O[C@H](OC(=O)c2cc(O)c(O)c(OC(=O)c3cc(O)c(O)c(O)c3)c2)[C@@H](OC(=O)c2cc(O)c(O)c(OC(=O)c3cc(O)c(O)c(O)c3)c2)[C@H](OC(=O)c2cc(O)c(O)c(OC(=O)c3cc(O)c(O)c(O)c3)c2)[C@H]1OC(=O)c1cc(O)c(O)c(OC(=O)c2cc(O)c(O)c(O)c2)c1)c1cc(O)c(O)c(OC(=O)c2cc(O)c(O)c(O)c2)c1
Carcinogen: 2,2'-DIHYDROXY-DI-N-PROPYLNITROSAMINE, 53609-64-6, N-ETHYL-N-HYDROXYETHYLNITROSAMINE, 13147-25-6, 3,2'-DIMETHYL-4-AMINO-, Carcinogen: 2,2'-DIHYDROXY-DI-N-PROPYLNITROSAMINE, 53609-64-6, N-ETHYL-N-HYDROXYETHYLNITROSAMINE, 13147-25-6, 3,2'-DIMETHYL-4-AMINO-, Dose [Inhibitor]: 0, 1% IN DIET FOR 32 WK BEGINNING 1 WK POST CARCINOGEN TREATMENT (STUDY DURATION: 36 WK), Route [Inhibitor]: ORAL, Species: RAT, Strain/Sex: F344/MALE, Target Tissue: Type of Lesion: KIDNEY: TRANSITIONAL CELL CARCINOMA, Dose [Carcinogen]: 1000 MG/KG BW DHPN TWICE, 1500 MG/KG BW EHEN TWICE, 75 MG/KG BW DMAB 3 TIMES ADMINISTERED OVER FIRST 3 WK, Promoter: NONE USED
  tumour outcome (control, treated, inhibition, significance): 1/14 (7%), 0/12 (0%), 100%, not significant
Carcinogen: 2,2'-DIHYDROXY-DI-N-PROPYLNITROSAMINE, 53609-64-6, N-ETHYL-N-HYDROXYETHYLNITROSAMINE, 13147-25-6, 3,2'-DIMETHYL-4-AMINO-, Carcinogen: 2,2'-DIHYDROXY-DI-N-PROPYLNITROSAMINE, 53609-64-6, N-ETHYL-N-HYDROXYETHYLNITROSAMINE, 13147-25-6, 3,2'-DIMETHYL-4-AMINO-, Dose [Inhibitor]: 0, 1% IN DIET FOR 32 WK BEGINNING 1 WK POST CARCINOGEN TREATMENT (STUDY DURATION: 36 WK), Route [Inhibitor]: ORAL, Species: RAT, Strain/Sex: F344/MALE, Target Tissue: Type of Lesion: LARGE INTESTINE: ADENOMA, Dose [Carcinogen]: 1000 MG/KG BW DHPN TWICE, 1500 MG/KG BW THEN TWICE, 75 MG/KG BW DMAB 3 TIMES ADMINISTERED OVER FIRST 3 WK, Dose [Carcinogen]: 1000 MG/KG BW DHPN TWICE, 1500 MG/KG BW THEN TWICE, 75 MG/KG BW DMAB 3 TIMES ADMINISTERED OVER FIRST 3 WK, Promoter: NONE USED
  tumour outcome (control, treated, inhibition, significance): 7/14 (50%), 2/12 (17%), 66%, not significant
Carcinogen: 2,2'-DIHYDROXY-DI-N-PROPYLNITROSAMINE, 53609-64-6, N-ETHYL-N-HYDROXYETHYLNITROSAMINE, 13147-25-6, 3,2'-DIMETHYL-4-AMINO-, Carcinogen: 2,2'-DIHYDROXY-DI-N-PROPYLNITROSAMINE, 53609-64-6, N-ETHYL-N-HYDROXYETHYLNITROSAMINE, 13147-25-6, 3,2'-DIMETHYL-4-AMINO-, Dose [Inhibitor]: 0, 1% IN DIET FOR 32 WK BEGINNING 1 WK POST CARCINOGEN TREATMENT (STUDY DURATION: 36 WK), Route [Inhibitor]: ORAL, Species: RAT, Strain/Sex: F344/MALE, Target Tissue: Type of Lesion: LARGE INTESTINE: CARCINOMA, Dose [Carcinogen]: 1000 MG/KG BW DHPN TWICE, 1500 MG/KG BW THEN TWICE, 75 MG/KG BW DMAB 3 TIMES ADMINISTERED OVER FIRST 3 WK, Promoter: NONE USED
  tumour outcome (control, treated, inhibition, significance): 3/14 (21%), 1/12 (8%), 62%, not significant
Carcinogen: 2,2'-DIHYDROXY-DI-N-PROPYLNITROSAMINE, 53609-64-6, N-ETHYL-N-HYDROXYETHYLNITROSAMINE, 13147-25-6, 3,2'-DIMETHYL-4-AMINO-, Carcinogen: 2,2'-DIHYDROXY-DI-N-PROPYLNITROSAMINE, 53609-64-6, N-ETHYL-N-HYDROXYETHYLNITROSAMINE, 13147-25-6, 3,2'-DIMETHYL-4-AMINO-, Dose [Inhibitor]: 0, 1% IN DIET FOR 32 WK BEGINNING 1 WK POST CARCINOGEN TREATMENT (STUDY DURATION: 36 WK), Route [Inhibitor]: ORAL, Species: RAT, Strain/Sex: F344/MALE, Target Tissue: Type of Lesion: LIVER: HEPATOCELLULAR CARCINOMA, Dose [Carcinogen]: 1000 MG/KG BW DHPN TWICE, 1500 MG/KG BW THEN, 75 MG/KG BW DMAB 3 TIMES ADMINISTERED OVER FIRST 3 WKS, Promoter: NONE USED
  tumour outcome (control, treated, inhibition, significance): 6/14 (43%), 3/12 (25%), 42%, not significant
Carcinogen: 2,2'-DIHYDROXY-DI-N-PROPYLNITROSAMINE, 53609-64-6, N-ETHYL-N-HYDROXYETHYLNITROSAMINE, 13147-25-6, 3,2'-DIMETHYL-4-AMINO-, Carcinogen: 2,2'-DIHYDROXY-DI-N-PROPYLNITROSAMINE, 53609-64-6, N-ETHYL-N-HYDROXYETHYLNITROSAMINE, 13147-25-6, 3,2'-DIMETHYL-4-AMINO-, Dose [Inhibitor]: 0, 1% IN DIET FOR 32 WK BEGINNING 1 WK POST CARCINOGEN TREATMENT (STUDY DURATION: 36 WK), Route [Inhibitor]: ORAL, Species: RAT, Strain/Sex: F344/MALE, Target Tissue: Type of Lesion: LUNG: ADENOMA, Dose [Carcinogen]: 1000 MG/KG BW DHPN TWICE, 1500 MG/KG BW THEN TWICE, 75 MG/KG BW DMAB 3 TIMES ADMINISTERED OVER FIRST 3 WK, Dose [Carcinogen]: 1000 MG/KG BW DHPN TWICE, 1500 MG/KG BW THEN TWICE, 75 MG/KG BW DMAB 3 TIMES ADMINISTERED OVER FIRST 3 WK, Promoter: NONE USED
  tumour outcome (control, treated, inhibition, significance): 7/14 (50%), 7/12 (58%), -16%, not significant
Carcinogen: 2,2'-DIHYDROXY-DI-N-PROPYLNITROSAMINE, 53609-64-6, N-ETHYL-N-HYDROXYETHYLNITROSAMINE, 13147-25-6, 3,2'-DIMETHYL-4-AMINO-, Carcinogen: 2,2'-DIHYDROXY-DI-N-PROPYLNITROSAMINE, 53609-64-6, N-ETHYL-N-HYDROXYETHYLNITROSAMINE, 13147-25-6, 3,2'-DIMETHYL-4-AMINO-, Dose [Inhibitor]: 0, 1% IN DIET FOR 32 WK BEGINNING 1 WK POST CARCINOGEN TREATMENT (STUDY DURATION: 36 WK), Route [Inhibitor]: ORAL, Species: RAT, Strain/Sex: F344/MALE, Target Tissue: Type of Lesion: LUNG: CARCINOMA, Dose [Carcinogen]: 1000 MG/KG BW DHPN TWICE, 1500 MG/KG BW THEN TWICE, 75 MG/KG BW DMAB 3 TIMES ADMINISTERED OVER FIRST 3 WK, Promoter: NONE USED
  tumour outcome (control, treated, inhibition, significance): 1/14 (7%), 2/12 (17%), -143%, not significant
Carcinogen: 2,2'-DIHYDROXY-DI-N-PROPYLNITROSAMINE, 53609-64-6, N-ETHYL-N-HYDROXYETHYLNITROSAMINE, 13147-25-6, 3,2'-DIMETHYL-4-AMINO-, Carcinogen: 2,2'-DIHYDROXY-DI-N-PROPYLNITROSAMINE, 53609-64-6, N-ETHYL-N-HYDROXYETHYLNITROSAMINE, 13147-25-6, 3,2'-DIMETHYL-4-AMINO-, Dose [Inhibitor]: 0, 1% IN DIET FOR 32 WK BEGINNING 1 WK POST CARCINOGEN TREATMENT (STUDY DURATION: 36 WK), Route [Inhibitor]: ORAL, Species: RAT, Strain/Sex: F344/MALE, Target Tissue: Type of Lesion: THYROID GLAND: CARCINOMA, Dose [Carcinogen]: 1000 MG/KG BW DHPN TWICE, 1500 MG/KG BW THEN TWICE, 75 MG/KG BW DMAB 3 TIMES ADMINISTERED OVER FIRST 3 WK, Promoter: NONE USED
  tumour outcome (control, treated, inhibition, significance): 3/14 (21%), 2/12 (17%), 19%, not significant
Carcinogen: 2,2'-DIHYDROXY-DI-N-PROPYLNITROSAMINE, 53609-64-6, N-ETHYL-N-HYDROXYETHYLNITROSAMINE, 13147-25-6, 3,2'-DIMETHYL-4-AMINO-, Carcinogen: 2,2'-DIHYDROXY-DI-N-PROPYLNITROSAMINE, 53609-64-6, N-ETHYL-N-HYDROXYETHYLNITROSAMINE, 13147-25-6, 3,2'-DIMETHYL-4-AMINO-, Dose [Inhibitor]: 0, 1% IN DIET FOR 32 WK BEGINNING 1 WK POST CARCINOGEN TREATMENT (STUDY DURATION: 36 WK), Route [Inhibitor]: ORAL, Species: RAT, Strain/Sex: F344/MALE, Target Tissue: Type of Lesion: URINARY BLADDER: CARCINOMA, Dose [Carcinogen]: 1000 MG/KG BW DHPN TWICE, 1500 MG/KG BW THEN TWICE, 75 MG/KG BW DMAB 3 TIMES ADMINISTERED OVER FIRST THREE WEEKS, Promoter: NONE USED
  tumour outcome (control, treated, inhibition, significance): 1/14 (7%), 2/12 (17%), -143%, not significant
Carcinogen: 2,2'-DIHYDROXY-DI-N-PROPYLNITROSAMINE, 53609-64-6, N-ETHYL-N-HYDROXYETHYLNITROSAMINE, 13147-25-6, 3,2'-DIMETHYL-4-AMINO-, Carcinogen: 2,2'-DIHYDROXY-DI-N-PROPYLNITROSAMINE, 53609-64-6, N-ETHYL-N-HYDROXYETHYLNITROSAMINE, 13147-25-6, 3,2'-DIMETHYL-4-AMINO-, Dose [Inhibitor]: 0, 1% IN DIET FOR 32 WK BEGINNING 1 WK POST CARCINOGEN TREATMENT (STUDY DURATION: 36 WK), Route [Inhibitor]: ORAL, Species: RAT, Strain/Sex: F344/MALE, Target Tissue: Type of Lesion: URINARY BLADDER: PAPILLOMA, Dose [Carcinogen]: 1000 MG/KG BW DHPN TWICE, 1500 MG/KG BW THEN TWICE, 75 MG/KG BW DMAB 3 TIMES ADMINISTERED OVER FIRST 3 WK, Promoter: NONE USED
  outcome: 0/14 (0%), 3/12 (25%), -100%, not significant
Carcinogen: 7,12-DIMETHYLBENZ(A)ANTHRACENE [57-97-6], Dose [Inhibitor]: 400 UG IN 200 µL ACETONE ONCE 24 HR AFTER THE LAST INJECTION OF IRON DEXTRAN (STUDY DURATION: 35 WKS), Route [Inhibitor]: DERMAL, Species: MOUSE, Strain/Sex: SWISS ALBINO/FEMALE, Target Tissue: Type of Lesion: SKIN: TUMORS, Dose [Carcinogen]: 40 UG IN 200 µL ACETONE DAILY FOR 5 D BEGINNING 1 HR AFTER TANNIC ACID TREATMENT (STUDY DURATION: 35 WKS), Promoter: IRON DEXTRAN [9004-66-4]
  tumour outcome (control, treated, inhibition, significance): 70%, 10%, 86%, not calculated
Carcinogen: 7,12-DIMETHYLBENZ(A)ANTHRACENE [57-97-6], Dose [Inhibitor]: 400 UG IN 200 µL ACETONE ONCE (STUDY DURATION: 35 WKS), Route [Inhibitor]: DERMAL, Species: MOUSE, Strain/Sex: SWISS ALBINO/FEMALE, Target Tissue: Type of Lesion: SKIN: TUMORS, Dose [Carcinogen]: 40 UG IN 200 µL ACETONE DAILY FOR 5 D BEGINNING 1 HR AFTER TANNIC ACID TREATMENT (STUDY DURATION: 35 WKS)
  tumour outcome (control, treated, inhibition, significance): 40%, 0%, 100%, not calculated
